Data on one compound can be found in patent US20220409692A1, “Systems Chemico-Pharmacology Drugs and Methods of Use” (The Medical College of Wisconsin, priority 2019, published 2022).

The subject of series [1] is cultured endothelial cells. The following applies: added to culture media; cited from earlier work.
The target of another series is T1, MPO (Homo sapiens, UniProt P05164).
T1 sequence (P05164 49-745): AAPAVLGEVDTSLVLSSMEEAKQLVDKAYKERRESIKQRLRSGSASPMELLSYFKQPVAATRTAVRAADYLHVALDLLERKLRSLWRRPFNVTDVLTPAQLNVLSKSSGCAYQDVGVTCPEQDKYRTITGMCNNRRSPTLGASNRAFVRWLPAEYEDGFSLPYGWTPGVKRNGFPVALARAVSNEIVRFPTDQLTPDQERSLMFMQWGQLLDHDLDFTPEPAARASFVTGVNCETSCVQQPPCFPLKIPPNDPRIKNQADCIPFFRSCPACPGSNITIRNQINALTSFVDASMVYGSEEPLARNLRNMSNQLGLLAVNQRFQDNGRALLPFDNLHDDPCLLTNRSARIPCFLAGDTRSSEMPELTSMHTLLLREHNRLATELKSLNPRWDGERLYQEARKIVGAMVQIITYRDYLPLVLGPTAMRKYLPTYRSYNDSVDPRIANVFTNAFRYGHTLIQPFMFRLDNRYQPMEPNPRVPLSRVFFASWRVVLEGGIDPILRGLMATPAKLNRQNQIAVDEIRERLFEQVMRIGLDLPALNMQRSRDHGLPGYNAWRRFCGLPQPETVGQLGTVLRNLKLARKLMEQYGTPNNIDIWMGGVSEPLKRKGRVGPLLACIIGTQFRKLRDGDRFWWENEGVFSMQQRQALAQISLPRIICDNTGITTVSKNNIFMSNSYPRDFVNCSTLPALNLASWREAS
As to the kind of experiment: MPO oxidation of KYC to thiyl radical, ESR with DMPO. The series is classed as biochemical. As to conditions: MPO 120 nM, H2O2 50 μM, KYC 30 μM. The protocol:
FIG. 30. MPO Oxidizes KYC to a KYC Thiyl Radical That Thiylates HMGB1. (A) ESR spectrum of KYC thiyl S°-DMPO generated by an MPO reaction mixture containing MPO (120 nM), H2O2 (50 μM) and KYC (30 μM). (B) Streptavidin-affinity blot of KYC thiylated HMGB1 and MPO in a split sample, one half treated neat and other half treated with DTT (100 mM) to reduce disulfide bonds.
This spectrum is similar to the spectrum of DMPO-S◯-YC generated when the dipeptide YC was added to an MPO reaction mixture containing DMPO [34].

A further series concerns RLMVEC. Description: KYC thiylation of endothelial cell proteins in RLMVEC cultures. It is filed as cell-based, rat. From the text:
FIG. 29. Effects of Oxidative Stress on KYC Thiylation of RLMVEC Proteins. (A) Streptavidin affinity blot of KYC thiylated proteins from cell lysates prepared from RLMVEC cultures treated with B-KYC (baseline), B-KYC+MPO+H2O2 (MPO-dependent), and B-KYC+H2O2 (H2O2-dependent). (B) Immunoblot for Nrf2 in RLMVEC cultures treated as described in A. (C) Immunoblot for Keap1 in RLMVEC cultures treated as described in A. (D) Immunoblot for HMGB1 in RLMVEC cultures treated as described in A.(E) Immunoblot for β-Actin in RLMVEC cultures treated as described in A.(F) Bar chart showing relative levels of KYC thiylation, Nrf2, Keap1, and HMGB1 as a function of β-Actin (n=2, *=p<0.05, statistical analysis was preformed by ANOVA with appropriate post hoc tests).
FIG. 31. MPO Oxidation of KYC Increases KYC Thiylation of Extracellular HMGB1. […] This conclusion is based on the relative levels of KYC thiylated HMGB1 in panel A vs. KYC thiylated HMGB1 as a function of HMGB1 protein in conditioned media vs. RLMVEC cell lysates.
Rat lung microvascular endothelial cells (RLMVEC) from neonatal Sprague-Dawley rats (RN-6011) and rat endothelial growth medium (EGM, M1266SF) were from Cell Biologics (Chicago, Ill.). Amicon®Ultra-4 centrifugal concentrators with 3K cut-off (UFC800324) were from Merck Millipore Ltd (Carrigtwohill, Ireland). PierceTM Streptavidin (#88816), Protein G (#88848), Protein A Magnetic Beads (#88845), PierceTM ECL Western Blotting Substrate (#32106), and SuperSignalTM West Femto Maximum Sensitivity Substrate (#34095) were from Thermo Fisher Scientific (Waltham, MA). Rabbit antibodies for myeloperoxidase heavy chain (MPO, sc-33596) and TLR4 (sc-10741) were from Santa Cruz Biotechnology (Dallas, Texas). Rabbit antibody for Cl-Tyr (HP5002) was from Hycult Biotech (Plymouth Meeting, PA). The chicken antibody for HMGB1 (326052233) was from SHINO-TEST Corporation (Kanagawa, Japan). Rabbit antibody for RAGE (GTX23611) was from GeneTex (Irvine, CA). Mouse antibodies for PECAM-1/CD31 (ab24590), for 8-OH-dG (ab48508), and for rat endothelial cell antigen-1 (RECA-1, ab9774) were from Abcam (Cambridge, MA). Rabbit antibody for Cox1 (sc-7950) and Cox2 (sc-7951) were from Santa Cruz Biotechnology. Mouse (ab190377) and rabbit (ab77302b) antibodies for HMGB1, and streptavidin-HRP (ab7403) were from Abcam (Cambridge, Mass.). Rabbit antibody for acetylated-HMGB1 (OASG03545) was from Aviva System Biology (San Diego, Calif.). Rabbit antibodies for Nrf2 (sc-722) and TLR4 (sc-30002) were from Santa Cruz Biotechnology (Dallas, Tex.). Rabbit antibody against Keap1 (ABS97) and mouse antibody for β-actin (A2228) were from Millipore-Sigma (St. Louis, Mo.). Rabbit antibody for cysteine sulfonyl (ADI-OSA-820) was from Enzo Life Sciences (Farmingdale, N.Y.). Mouse antibody for glutathionylated proteins (D8) and all other chemicals were from Sigma-Aldrich (St. Louis, Mo.). All antibodies were certified either by the manufacturer or were used previously and certified by the authors, as was the case for the anti-HMGB1 antibody.
Effects of Oxidative Stress on KYC Thiylation on Endothelial Cell Proteins in RLMVEC Cultures: To determine the effects of oxidative stress on KYC thiylation, RLMVEC cultures were treated with B-KYC to follow KYC thiylation with streptavidin-affinity blotting as outlined in Methods. Three different levels of oxidative stress were used to determine the effects of oxidative stress on KYC thiylation of endothelial cell proteins: media alone (baseline); media containing MPO+H2O2 (MPO-dependent); and media containing H2O2 alone (H2O2-dependent) (FIG. 29A). KYC thiylation of RLMVEC proteins at baseline was low (FIG. 29A, first two lanes).

The mark [2] stands for this setting: RLMVEC cultures, baseline vs MPO-dependent vs H2O2-dependent.

Peptide text beside a SMILES is read from it.

Turning to `CC(=O)N[C@@H](CCCCN)C(=O)N[C@@H](Cc1ccc(O)cc1)C(=O)N[C@@H](CS)C(N)=O` [KYC, N-acetyl lysyltyrosylcysteine amide] (Ac-Lys-Tyr-Cys-NH2), the “concentration with little to no effect on endothelial cell viability, apoptosis, necrosis, or mitochondrial function” value in series [1] was “up to 4000 μM”. On MPO, the “ESR spectrum of MPO reaction mixture with DMPO” value is “four-line ESR spectrum corresponding to DMPO-SO-KYC”. Further, in the series on RLMVEC (setting [2]), the “HMGB1 expression relative to β-actin” value is “increased in RLMVEC cultures subjected to H2O2-dependent KYC thiylation”, the “Keap1 expression relative to β-actin” value was “followed a pattern similar to Nrf2” and the “Nrf2 expression relative to β-actin” value is reported as “increased in RLMVEC cultures subjected to MPO-dependent KYC thiylation”. Moreover, the “KYC thiylation of HMGB1 released from RLMVEC cultures” value in the series with RLMVEC (conditioned media, no KYC vs KYC vs MPO+H2O2+KYC) was “greater in RLMVEC cultures incubated with MPO+H2O2+KYC”.
